A short description of the experiment: UV–Vis titration of HL-CH3 with Zn(ClO4)2, binding constant. Conditions: Zn(II); 0.1 mM ligand, 5% v/v MeOH/BBS 50 mM, pH 7.4. Here is the method:
To evaluate the selectivity of these ligands towards copper, the same titrations were performed with different metal salts: Fe(ClO4)2, Mn(ClO4)2, and Zn(ClO4)2, monitoring the methyl-substituted ligand (Figures S39–S41). These metal ions were chosen because they are also divalent and common in biological matrixes.
For the determination of the binding constant between metals and ligands, a solution of the latter was titrated with 0.2 eq of metal for each addition. The titrating solutions were 10 mM and 100 μM for Cu(ClO4)2 versus 0.1 mM and 1 μM for the ligands in 5% v/v MeOH/BBS (50 mM, pH 7.4), respectively. […] The absorbance variation was monitored from 200 nm to 800 nm at 25 °C. […]
UV-vis spectra of ligands and complexes were recorded in a quartz cuvette, with 1 cm of optical path. […]
The titrating solutions were 10 mM and 100 μM for Cu(ClO4)2 versus 0.1 mM and 1 μM for the ligands in 5% v/v MeOH/BBS (50 mM, pH 7.4), respectively. […] The absorbance variation was monitored from 200 nm to 800 nm with a Varian Cary 50 instrument, thermostated at 25 °C.
The binding constants were then determined by nonlinear regression analysis of the plot “ΔAbs/b vs Cu(II) concentration” (Equation 7 ), according to K. Connors, The Measurement of Molecular Complex Stability, Madison, Wisconsin, Wiley, 1987[5]. […]
ΔA: absorbance at a certain wavelength. […]

Consider `Cc1cc(CN(Cc2ccccn2)Cc2ccccn2)c(O)c(CN(Cc2ccccn2)Cc2ccccn2)c1` [HL-CH3, 2,6-bis[(bis(2-pyridylmethyl)amino)methyl]-4-methylphenol], for which the Kbind is 2.49 × 10^8 M^−2 and the “log(Kbind)” value is reported as 8.39.

For the origin of these results see PMC11643690, “Chelating Properties of N6O-Donors Toward Cu(II) Ions: Speciation in Aqueous Environments and Catalytic Activity of the Dinuclear Complexes” (Molecules, 2024).
